In assay [1] the target is T1, IMP-1 (Serratia marcescens, UniProt P52699).
T1 construct: The total length of IMP-1 as a metallo-β-lactamase was amplified by PCR; His tag (C); made in house; host or cells: E. coli DH5α, pTrcHis2 TOPO vector, periplasmic fraction
In words: biochemical. As to conditions: nitrocefin 100 μM, IMP-1 1 nM, ZnSO4 100 μM, 50 mM HEPES pH 7.5, room temperature 20 min; read-out: IC50 of each inhibitor against IMP-1. The method, then: (§1) The PCR product was integrated into pTrcHis2 TOPO vector (Invitrogen), and then introduced into E. coli DH5α (TOYOBO) for culture under the induction of 0.5 mM Isopropyl-β-D-(−)-thiogalactopyranoside (Wako) at 37° C. for 3 h to express IMP-1. After recovering the bacterial cells, the periplasmic fraction was extracted by ocmotic shock with sucrose to refine the IMP-1 by Ni-NTA Slurry (QIAGEN) with the His tag at the C-terminus.
(§2) In order to determine the inhibitory activity of metallo-β-lactamase, a 50 mM HEPES (pH 7.5) buffer (referred to hereinafter as “buffer”) was used, and nitrocefin (Oxoid) with the final concentration of 100 μM was used as a substrate. A test drug (material to be tested: compound having an Example Number shown in Table 2) was added to each well of a 96-well plate, into which nitrocefin was added and mixed. Then, IMP-1 or VIM-2 was added to each well in the final concentration of 1 nM or 1.5 nM, respectively to react the mixture at room temperature for 20 min. In this case, ZnSO4 was added in the final concentration of 100 μM in order to exclude the inhibitory effect by the chelate effect. Enzyme inhibiting activity was determined by measuring the hydrolysis activity of nitrocefin at a wave length of 490 nm with ARVOsx microplate reader (Wallac).

The target of assay [2] is T2, VIM-2 (UniProt Q5U7L7).
T2 construct: His tag (C); made in house; host or cells: E. coli DH5α
In words: biochemical. As to conditions: nitrocefin 100 μM, VIM-2 1.5 nM, ZnSO4 100 μM, 50 mM HEPES pH 7.5, room temperature 20 min; read-out: IC50 of each inhibitor against VIM-2. The method, then:
as §1, §2

Assay [3] relates to IMP-1 producing Pseudomonas aeruginosa strain PAO1/pMS363. In kind it is cell-based. As to conditions: no inhibitor, in µg/mL. An excerpt: IMP-1 producing Pseudomonas aeruginosa strain PAO1/pMS363 (FEMS Microbiology Letters 1994, 121, 175) was used for evaluating the inhibitory effect of maleic acid derivatives on the resistance against carbapenem by the metallo-β-lactamase in bacteria.

Each structure is given as a SMILES string. pIC50: −log10 of the molar value.

The values that follow come from patent US9260375B2, “Metallo-β-lactamase inhibitors” (priority 2005, dated 2016).

T1 sequence (P52699 19-246 limits assumed): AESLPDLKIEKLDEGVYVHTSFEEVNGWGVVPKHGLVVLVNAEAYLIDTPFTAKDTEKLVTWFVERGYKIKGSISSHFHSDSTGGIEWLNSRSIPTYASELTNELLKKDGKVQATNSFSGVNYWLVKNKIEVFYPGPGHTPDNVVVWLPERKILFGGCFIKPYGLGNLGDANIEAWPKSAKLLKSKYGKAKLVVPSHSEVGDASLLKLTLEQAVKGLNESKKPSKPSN

What is called pIC50 is the negative decadic logarithm of the IC50, by convention in mol/L. As for `CC(C)/C(C(=O)O)=C(\Cc1ccc(O)cc1)C(=O)O` [Example 86, 2-(4-Oxidobenzyl)-3-isopropylmaleic acid trisodium], the pIC50 is 6.25 in assay [1] and 5.72 in assay [2].
Taken in the same sequence, the figures for `CC(C)/C(C(=O)O)=C(\Cc1ccc(OCCN)cc1)C(=O)O` [Example 92, 2-[4-(2-aminoethoxy)benzyl]-3-isopropylmaleic acid disodium] were 6.01 and 6.52.
Taken in the same sequence, the figures for `CC(C)/C(C(=O)O)=C(/C(=O)O)C1CCCCC1` [Example 43, 2-Cyclohexyl-3-isopropylmaleic acid disodium] were 6.72 and 6.80.
Turning to `CO/N=C(\C(=O)N[C@@H]1C(=O)N2C(C(=O)O)=C(CSc3nc(=O)c(=O)[nH]n3C)CS[C@H]12)c1csc(N)n1` [CTRX, ceftriaxone], the “MIC of β-lactam drugs, β-lactam alone” value in assay [3] worked out at 4096.
Take `CC(C)(O/N=C(\C(=O)N[C@@H]1C(=O)N2C(C(=O)[O-])=C(C[n+]3ccccc3)CS[C@H]12)c1csc(N)n1)C(=O)O` [CAZ, ceftadizime]: in assay [3], the “MIC of β-lactam drugs, β-lactam alone” value is 2048.
`CC(C)/C(C(=O)O)=C(\Cc1cccnc1)C(=O)O` [Example 54, 2-Isopropyl-3-[(pyridine-3-yl)methyl]maleic acid disodium]: the pIC50 in assay [1] was 5.55; in assay [2] it was 5.28.
Consider `CO/N=C(\C(=O)N[C@@H]1C(=O)N2C(C(=O)[O-])=C(C[N+]3(C)CCCC3)CS[C@H]12)c1csc(N)n1` [CFPM, cefepime], for which the “MIC of β-lactam drugs, β-lactam alone” value in assay [3] came to 2048.
`CC/C(C(=O)O)=C(\SC(C)C)C(=O)O` [Example 66, 3-Ethyl-2-isopropylthiomaleic acid disodium]: the pIC50 in assay [1] was 5.92; in assay [2] it was 4.85.
Taken in the same sequence, the figures for `CC(C)/C(C(=O)O)=C(\Cc1ccc(C(N)=O)cc1)C(=O)O` [Example 72, 2-(4-Carbamoylbenzyl)-3-isopropylmaleic acid disodium] were 5.85 and 6.22.
Taken in the same sequence, the figures for `C/C(C(=O)O)=C(/C(=O)O)C(C)C` [Example 22, 2-isopropyl-3-methylmaleic acid disodium] were 5.62 and 5.14.
On to `C[C@@H](O)[C@H]1C(=O)N2C(C(=O)[O-])=C(SC3Cn4cnc[n+]4C3)[C@H](C)[C@H]12` (stereo partly shown) [BIPM, biapenem], for which the “MIC of β-lactam drugs, β-lactam alone” value in assay [3] was 64-128.
On the same count and under the same terms, next, `C[C@@H](O)[C@H]1C(=O)N2C(C(=O)O)=C(SCCN=CN)C[C@H]12` [IPM, imipenem]: 128-256.
On the same count and under the same terms, for `C[C@@H](O)[C@H]1C(=O)N2C(C(=O)O)=C(S[C@H]3C[C@@H](C(=O)N4CC[C@H](NC(=O)CNC(=N)N)C4)N(C)C3)[C@H](C)[C@H]12` [CS-023, (−)-(4R,5S,6S)-3-[[(3S,5S)-5-[(S)-3-(2-guanidinoacetylamino)pyrrolidin-1-ylcarbonyl]-1-methylpyrrolidin-3-yl]thio]-6-[(R)-1-hydroxyethyl]-4-methyl-7-oxo-azabicyclo[3.2.0]hept-2-ene-2-carboxylic acid] the value was 256; for `C[C@@H](O)[C@H]1C(=O)N2C(C(=O)O)=C(S[C@@H]3CN[C@H](CNS(N)(=O)=O)C3)[C@H](C)[C@H]12` [DRPM, doripenem], 128.
On to `CC/C(C(=O)O)=C(\Cc1ccccc1)C(=O)O` [Example 11, 2-benzyl-3-ethylmaleic acid disodium], for which the pIC50 was 6.54 in assay [1] and 5.52 in assay [2].
For `CC(C)/C(C(=O)O)=C(/C(=O)O)C1CCOCC1` [Example 51, 3-Isopropyl-2-(tetrahydropyran-4-yl)maleic acid disodium], in that order: 5.72 and 5.74.
